Measurements as given in patent US20070086981A1, “Delivery peptides, their constructs with active agents and use” (priority 2003, published 2007).

Test system: human skin
Assay: Clinical study with a cream for skincare against skin aging
Assay type: in vivo, humans
Conditions: comparison of skin creams in the clinical study
Description: A cream base was used having the following ingredients:
The huSOD-peptide OA 05 conjugate was produced as described in example 4.
The following compositions of skin cream were prepared for use in the clinical study:
The properties were evaluated according the following criteria: “firmness of the skin”, “reduction of superficial wrinkles”, “reduction of deeper wrinkles”, “skin regeneration”, and “appearance of young skin”. The questionnaire was filled out at least 4 weeks after starting of using the skin cream.
The application of the skin cream was done in all Groups (I to V) over 6 weeks twice a day, creaming the face and the neck in the morning and in the evening without using any other skin products. No application was discontinued in any group. The observation period (counted from the first application) was minimum 4 weeks and maximum 10 weeks.
Furthermore, a total evaluation of the different applied skin creams on a score ranging from 1 (excellent) to 6 (very poor) was performed.

Substance | beneficial effect on aging parameters in the human skin
SOD: Super-Oxid- Dismutase (SOD), a free radical catcher; huSOD from Jena Biosciences | has a beneficial effect on different aging parameters in the human skin
KKKQKRKK (Cargo Peptide) [OA 05] | significantly increases the beneficial effect of SOD
